pIC50, pKd: −log10 of the molar value.
How the values were obtained:
[1] = molecular target: T1, tRNA (cytosine(38)-C(5))-methyltransferase (Homo sapiens, UniProt O14717); assay: Binding affinity to full length human N-terminal his6-tagged DNMT2 expressed in Escherichia coli Rosetta2(DE3)pLysS assessed as dissociation constant at 100 uM by isothermal titration calorimetry assay
T1 sequence (O14717 whole entry): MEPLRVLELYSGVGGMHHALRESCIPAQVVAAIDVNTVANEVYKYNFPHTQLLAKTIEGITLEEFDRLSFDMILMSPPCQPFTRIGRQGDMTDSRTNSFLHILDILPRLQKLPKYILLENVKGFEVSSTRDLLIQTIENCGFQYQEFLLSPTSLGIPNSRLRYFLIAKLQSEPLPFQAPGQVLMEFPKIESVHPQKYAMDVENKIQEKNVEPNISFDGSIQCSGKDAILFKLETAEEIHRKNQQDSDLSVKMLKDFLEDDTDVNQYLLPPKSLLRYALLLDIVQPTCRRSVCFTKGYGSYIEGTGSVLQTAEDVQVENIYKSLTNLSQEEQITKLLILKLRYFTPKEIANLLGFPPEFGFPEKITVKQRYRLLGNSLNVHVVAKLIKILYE

[2] = molecular target: T1, tRNA (cytosine(38)-C(5))-methyltransferase; assay: Inhibition of full length human N-terminal his6-tagged DNMT2 expressed in Escherichia coli Rosetta2(DE3)pLysS by […] assay
[3] = Selectivity ratio of Kd for binding affinity to full length human N-terminal his6-tagged DNMT2 expressed in Escherichia coli Rosetta2(DE3)pLysS assessed as dissociation constant to IC50 for inhibition of full length human N-terminal his6-tagged DNMT2 expressed in Escherichia coli Rosetta2(DE3)pLysS
[4] = molecular target: T2, tRNA (cytosine(38)-C(5))-methyltransferase (Homo sapiens) (UniProt O14717); assay: Binding affinity to full length human N-terminal his6-tagged DNMT2 expressed in Escherichia coli Rosetta2(DE3)pLysS assessed as gibbs free energy change at 100 uM by isothermal titration calorimetry assay
T2 sequence (whole entry): T1 sequence (O14717 whole entry)

[5] = molecular target: T2, tRNA (cytosine(38)-C(5))-methyltransferase (Homo sapiens); assay: Binding affinity to full length human N-terminal his6-tagged DNMT2 expressed in Escherichia coli Rosetta2(DE3)pLysS assessed as change in enthalpy change at 100 uM by isothermal titration calorimetry assay
[6] = molecular target: T2, tRNA (cytosine(38)-C(5))-methyltransferase (Homo sapiens); assay: Binding affinity to full length human N-terminal his6-tagged DNMT2 expressed in Escherichia coli Rosetta2(DE3)pLysS assessed as change in entropy at 100 uM by isothermal titration calorimetry assay
[7] = molecular target: DNA (cytosine-5)-methyltransferase 3A (Homo sapiens) (UniProt Q9Y6K1); assay: Inhibition of recombinant human DNMT3A-3L expressed in Escherichia coli Rosetta2(DE3)pLysS at 100 uM using Poly(dI-dC)-Poly(dI-dC) as substrate measured at 150 mins by liquid scintillation counting analysis
DNA (cytosine-5)-methyltransferase 3A (Homo sapiens), sequence (Q9Y6K1 whole entry, looked up): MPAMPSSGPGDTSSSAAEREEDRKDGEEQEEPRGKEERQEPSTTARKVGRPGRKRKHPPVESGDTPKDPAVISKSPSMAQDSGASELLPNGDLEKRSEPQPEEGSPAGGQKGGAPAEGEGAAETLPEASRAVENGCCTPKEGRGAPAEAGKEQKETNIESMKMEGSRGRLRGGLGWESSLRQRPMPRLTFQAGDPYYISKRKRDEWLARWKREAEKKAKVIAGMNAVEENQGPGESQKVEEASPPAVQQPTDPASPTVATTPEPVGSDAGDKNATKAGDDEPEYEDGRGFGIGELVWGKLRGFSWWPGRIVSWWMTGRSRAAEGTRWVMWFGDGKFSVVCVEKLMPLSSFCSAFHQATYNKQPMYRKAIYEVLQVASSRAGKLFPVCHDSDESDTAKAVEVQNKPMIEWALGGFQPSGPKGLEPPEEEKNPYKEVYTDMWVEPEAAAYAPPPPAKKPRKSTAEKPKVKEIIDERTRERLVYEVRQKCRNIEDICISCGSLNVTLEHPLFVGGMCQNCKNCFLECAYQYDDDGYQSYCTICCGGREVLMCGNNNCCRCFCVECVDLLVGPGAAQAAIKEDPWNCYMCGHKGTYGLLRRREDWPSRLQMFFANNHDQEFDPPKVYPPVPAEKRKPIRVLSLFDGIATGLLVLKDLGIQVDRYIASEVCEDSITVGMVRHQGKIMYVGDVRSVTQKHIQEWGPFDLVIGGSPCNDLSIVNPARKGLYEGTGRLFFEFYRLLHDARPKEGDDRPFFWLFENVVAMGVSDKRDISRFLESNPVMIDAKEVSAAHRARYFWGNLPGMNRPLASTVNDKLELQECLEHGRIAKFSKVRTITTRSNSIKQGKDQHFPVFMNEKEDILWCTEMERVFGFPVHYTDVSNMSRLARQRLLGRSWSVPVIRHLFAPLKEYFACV

[8] = molecular target: T3, tRNA (cytosine(72)-C(5))-methyltransferase NSUN6 (Homo sapiens) (UniProt Q8TEA1); assay: Inhibition of full length human NSUN6 expressed in Escherichia coli Rosetta2(DE3)pLysS at 100 uM measured at 20 mins by liquid scintillation counting analysis
T3 sequence (whole entry): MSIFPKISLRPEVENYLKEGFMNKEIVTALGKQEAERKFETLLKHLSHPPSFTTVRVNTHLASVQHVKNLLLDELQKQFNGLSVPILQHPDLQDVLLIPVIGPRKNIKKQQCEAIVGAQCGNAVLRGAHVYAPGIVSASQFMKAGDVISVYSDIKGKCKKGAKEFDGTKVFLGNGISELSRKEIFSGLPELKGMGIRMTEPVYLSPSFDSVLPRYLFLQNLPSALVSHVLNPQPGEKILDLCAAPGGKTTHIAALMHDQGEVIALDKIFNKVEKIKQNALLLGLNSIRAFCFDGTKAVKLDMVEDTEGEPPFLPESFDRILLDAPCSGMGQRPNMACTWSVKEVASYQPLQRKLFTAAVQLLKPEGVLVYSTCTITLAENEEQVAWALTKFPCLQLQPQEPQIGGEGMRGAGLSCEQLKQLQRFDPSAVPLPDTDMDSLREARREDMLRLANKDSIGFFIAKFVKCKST

[9] = molecular target: T4, Histone-lysine N-methyltransferase EHMT2 (Homo sapiens) (UniProt Q96KQ7); assay: Inhibition of recombinant human EHMT2 G9a expressed in Escherichia coli Rosetta2(DE3)pLysS at 100 uM using histone H3 as substrate measured at 120 mins by liquid scintillation counting analysis
T4 sequence (whole entry): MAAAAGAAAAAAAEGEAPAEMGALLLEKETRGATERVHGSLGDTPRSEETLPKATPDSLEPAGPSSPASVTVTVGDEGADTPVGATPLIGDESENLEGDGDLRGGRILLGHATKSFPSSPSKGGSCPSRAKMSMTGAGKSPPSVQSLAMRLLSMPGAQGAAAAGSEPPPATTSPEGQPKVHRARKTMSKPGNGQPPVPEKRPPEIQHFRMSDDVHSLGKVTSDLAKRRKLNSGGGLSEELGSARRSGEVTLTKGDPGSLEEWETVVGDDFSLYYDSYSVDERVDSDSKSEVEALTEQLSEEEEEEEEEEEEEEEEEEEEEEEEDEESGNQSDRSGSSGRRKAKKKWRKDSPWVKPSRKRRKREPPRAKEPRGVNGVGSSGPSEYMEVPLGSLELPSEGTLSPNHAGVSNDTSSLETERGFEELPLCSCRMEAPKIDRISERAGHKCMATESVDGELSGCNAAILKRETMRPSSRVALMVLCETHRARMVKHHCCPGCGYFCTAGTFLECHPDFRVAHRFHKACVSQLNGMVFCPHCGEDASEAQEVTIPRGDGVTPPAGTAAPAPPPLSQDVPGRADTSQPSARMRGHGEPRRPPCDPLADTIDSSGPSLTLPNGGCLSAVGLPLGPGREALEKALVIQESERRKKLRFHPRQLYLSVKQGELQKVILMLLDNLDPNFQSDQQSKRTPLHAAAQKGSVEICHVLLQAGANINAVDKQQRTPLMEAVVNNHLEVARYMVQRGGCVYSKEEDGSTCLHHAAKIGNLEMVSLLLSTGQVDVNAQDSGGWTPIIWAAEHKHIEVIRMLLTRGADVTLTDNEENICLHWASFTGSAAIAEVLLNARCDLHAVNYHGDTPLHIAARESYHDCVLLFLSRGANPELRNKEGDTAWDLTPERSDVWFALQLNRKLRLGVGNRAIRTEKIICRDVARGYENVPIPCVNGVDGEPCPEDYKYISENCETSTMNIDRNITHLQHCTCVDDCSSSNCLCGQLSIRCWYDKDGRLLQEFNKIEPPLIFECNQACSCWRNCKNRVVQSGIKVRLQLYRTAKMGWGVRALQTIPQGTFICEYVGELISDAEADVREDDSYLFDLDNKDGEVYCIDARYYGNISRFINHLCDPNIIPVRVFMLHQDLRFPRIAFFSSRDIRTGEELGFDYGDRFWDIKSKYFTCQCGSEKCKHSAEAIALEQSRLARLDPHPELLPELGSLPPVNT

[10] = molecular target: T2, tRNA (cytosine(38)-C(5))-methyltransferase (Homo sapiens); assay: Inhibition of full length human N-terminal his6-tagged DNMT2 expressed in Escherichia coli Rosetta2(DE3)pLysS at 100 uM by liquid scintillation counting analysis
[11] = Cytotoxicity against human HEK293 cells assessed as cell viability at 100 uM measured after 24 hrs by MTT assay; assay type: toxicity, cell-based
[12] = molecular target: RNA cytosine C(5)-methyltransferase NSUN2 (Homo sapiens) (UniProt Q08J23); assay: Inhibition of full length recombinant human NSUN2 expressed in Escherichia coli Rosetta2(DE3)pLysS at 100 uM measured at 20 mins by liquid scintillation counting analysis
RNA cytosine C(5)-methyltransferase NSUN2 (Homo sapiens), sequence (Q08J23 whole entry): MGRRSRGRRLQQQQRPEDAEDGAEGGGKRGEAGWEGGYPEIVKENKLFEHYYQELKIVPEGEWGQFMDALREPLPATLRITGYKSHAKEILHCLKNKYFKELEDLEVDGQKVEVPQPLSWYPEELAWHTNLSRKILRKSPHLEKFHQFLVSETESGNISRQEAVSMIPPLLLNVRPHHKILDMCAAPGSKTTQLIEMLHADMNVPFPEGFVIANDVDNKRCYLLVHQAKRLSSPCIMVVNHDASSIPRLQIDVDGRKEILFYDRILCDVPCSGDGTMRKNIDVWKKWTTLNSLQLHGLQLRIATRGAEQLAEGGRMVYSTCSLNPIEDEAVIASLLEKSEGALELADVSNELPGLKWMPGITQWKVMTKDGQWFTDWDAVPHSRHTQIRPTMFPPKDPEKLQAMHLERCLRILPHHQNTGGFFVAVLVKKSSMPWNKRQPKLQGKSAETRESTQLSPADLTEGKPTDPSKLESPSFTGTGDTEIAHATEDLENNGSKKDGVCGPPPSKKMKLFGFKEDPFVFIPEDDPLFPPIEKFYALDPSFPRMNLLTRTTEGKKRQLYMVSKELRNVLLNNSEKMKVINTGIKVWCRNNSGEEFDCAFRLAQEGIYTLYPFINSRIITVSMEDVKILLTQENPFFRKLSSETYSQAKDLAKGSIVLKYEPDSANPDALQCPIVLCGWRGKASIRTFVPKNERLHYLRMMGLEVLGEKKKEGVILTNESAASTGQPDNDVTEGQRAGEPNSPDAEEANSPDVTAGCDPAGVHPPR

[13] = molecular target: T2, tRNA (cytosine(38)-C(5))-methyltransferase (Homo sapiens); assay: Inhibition of DNMT2-mediated tRNA methylation in human HEK293 cells assessed as reduction in m5C at C38 of tRNA by measuring m5C level at 100 uM incubated for 24 hrs by bisulfite sequencing analysis; assay type: cell-based
[14] = Permeability of the compound in human Caco-2 cells assessed as compound remaining by measuring ester form of the acceptor compartment incubated for 24 hrs by LC/MS analysis; assay type: ADME, cell-based; settings: caco-2, 24 h
[15] = Stability of the compound in TRIS buffer at 7.4 pH assessed as hydrolysis of ethyl ester at 100 uM incubated for 24 hrs by LC-MS analysis; assay type: physicochemical; settings: pH 7.4, read-out: Drug degradation
[16] = Permeability of the compound in human Caco-2 cells assessed as compound remaining by measuring ester form of the donor compartment incubated for 24 hrs by LC/MS analysis; assay type: ADME, cell-based; settings: read-out: Activity
[17] = Permeability of the compound in human Caco-2 cells assessed as compound remaining by measuring acid form of the donor compartment incubated for 24 hrs by LC/MS analysis; assay type: ADME, cell-based; settings: caco-2, 24 h

Row | Structure (SMILES) | pKd [1] | pIC50 [2] | Selectivity ratio [3] | deltaG [4] [kcal/mol] | deltaH [5] [kcal/mol] | -TdeltaS [6] [kcal/mol] | inhibition [7] [%] | inhibition [8] [%] | inhibition [9] [%] | inhibition [10] [%] | CC50 at 24 h [11] [µM] | inhibition [12] [%] | inhibition [13] [%] | Activity [14] [%] | degraded at 24 h, 100 µM [15] [%] | remaining at 24 h [16] [%] | Activity [17]
1 | C#CCN(CC[C@H](N)C(=O)O)C[C@H]1O[C@@H](n2cnc3c(N)ncnc32)[C@H](O)[C@@H]1O | 4.94 | 4.11 | 7 | -6.74 | -9.03 | 2.29 | 97.6 | 25.9 | 22.8 | 72.2 | – | – | – | – | – | – | –
2 | CCCN(CC[C@H](N)C(=O)O)C[C@H]1O[C@@H](n2cnc3c(N)ncnc32)[C@H](O)[C@@H]1O | – | – | – | – | – | – | – | – | – | – | > 500 | – | – | – | – | – | –
3 | Nc1ncnc2c1ncn2[C@@H]1O[C@H](C[C@@H](N)CC[C@H](N)C(=O)O)[C@@H](O)[C@H]1O [SINEFUNGIN] | 5.12 | 4.88 | 2 | -7 | -5.86 | -1.15 | 98 | 70.2 | 43 | 83.5 | > 500 | 77.1 | 94 | – | – | – | –
4 | C#CC(C)N(CC[C@H](N)C(=O)O)C[C@H]1O[C@@H](n2cnc3c(N)ncnc32)[C@H](O)[C@@H]1O (some centres undefined) | – | – | – | – | – | – | 84.2 | – | 71 | – | > 500 | – | – | 0.6 | – | – | –
5 | C#CC(C)N(CC[C@H](N)C(=O)OCC)C[C@H]1O[C@@H](n2cnc3c(N)ncnc32)[C@H](O)[C@@H]1O (some centres undefined) | – | – | – | – | – | – | – | – | – | – | > 500 | – | – | 2 | 60 | 20 | <= 78%
6 | CC#CCN(CC[C@H](N)C(=O)O)C[C@H]1O[C@@H](n2cnc3c(N)ncnc32)[C@H](O)[C@@H]1O | – | – | – | – | – | – | 93.9 | 12.9 | 37.6 | – | – | – | – | – | – | – | –
7 | Nc1ncnc2c1ncn2[C@@H]1O[C@H](CSCC[C@H](N)C(=O)O)[C@@H](O)[C@H]1O [S-ADENOSYLHOMOCYSTEINE] | 4.87 | 4.80 | – | -6.64 | -13.2 | 6.57 | 96.7 | 99.6 | 94.3 | 85.7 | – | 97.3 | – | – | – | – | –
8 | CCC#CCN(CC[C@H](N)C(=O)O)C[C@H]1O[C@@H](n2cnc3c(N)ncnc32)[C@H](O)[C@@H]1O | – | – | – | – | – | – | 95.3 | 22.7 | 32 | – | – | – | – | – | – | – | –
